From patent US6914045B2, “Glycopeptide antibiotics” (Wyeth Holdings Corporation, priority 2001, dated 2005)
Converted amounts (≈) assume the structure as drawn.

Key:
Test in all cases: in vitro antibacterial evaluation, MIC by broth dilution
Assay type in all cases: cell-based
Escherichia coli = settings: 18 hours at 35° C.
Staphylococcus sp. = settings: broth dilution, 18 hours at 35° C.; for MIC Staphylococcus aureus (GC 1131): strain GC 1131
Description: (§1) Methods for in vitro Antibacterial Evaluation (Table 1)
(§2) The minimum inhibitory concentration (MIC), the lowest concentration of the antibiotic which inhibits growth of the test organism, is determined by the broth dilution method using Muller-Hinton II […] (Baltimore Biological Laboratories) following the recommendations of the National Committee for Clinical Laboratory Standards [Methods for dilution antimicrobial susceptibility tests for bacteria that grow aerobically, approved standard M7-A2, National Committee for Clinical Laboratory Standards, Villanova, Pa.].
(§3) An inoculum level of 5×10^5 CFU/mL, and a range of antibiotic concentrations (64-0.06 μg/mL) is used. […] The test organisms include a spectrum of Gram-positive bacteria comprised of Staphylococcus sp., Streptococcus sp. and Enterococcus sp. These organisms include recent clinical isolates that are resistant to methicillin, penicillin and/or vancomycin.

Enterococcus sp. = settings: broth dilution, 18 hours at 35° C.
Description: as §1, §2, §3

Streptococcus sp. = settings: broth dilution, 18 hours at 35° C.
Description: as §1, §2, §3

Question: Which results are given for `CC(c1ccc(Cl)cc1)C1NC(=O)CNC(=O)C(CO)NC(=O)C(C(O)C2CNC(=N)N2C2OC(CO)C(O)C(O)C2O)NC(=O)C(C(O)C2CNC(=N)N2)NC(=O)C(Cc2ccc(OC3OC(CO)C(OC4OC5COC(c6ccccc6)OC5C(O)C4O)C(O)C3O)cc2)NC1=O` (centres unmarked) [Example 195]?
Answer: MIC Escherichia coli (ATCC 25922) (Escherichia coli): >0.5 µg/mL; MIC Escherichia coli (GC 4559) (Escherichia coli): >0.5 µg/mL; MIC Escherichia coli (GC 4560) (Escherichia coli): 0.5 µg/mL (≈ 0.353 µM); MIC Staphylococcus aureus (GC 1131) (Staphylococcus sp.; inoculum 5×10^5 CFU/mL): 0.5 µg/mL (≈ 0.353 µM); MIC Staphylococcus aureus (ATCC 29213) (Staphylococcus sp.; strain ATCC 29213): 0.5 µg/mL (≈ 0.353 µM); MIC Staphylococcus aureus (GC 1131) (Staphylococcus sp.): 0.5 µg/mL (≈ 0.353 µM); MIC Staphylococcus aureus (GC 3051) (Staphylococcus sp.; strain GC 3051): 0.5 µg/mL (≈ 0.353 µM); MIC Staphylococcus aureus (GC 3053) (Staphylococcus sp.; strain GC 3053): 0.5 µg/mL (≈ 0.353 µM); MIC Staphylococcus aureus (GC 4541) (Staphylococcus sp.; strain GC 4541): 0.5 µg/mL (≈ 0.353 µM); MIC Staphylococcus aureus (GC 4542) (Staphylococcus sp.; strain GC 4542): 0.5 µg/mL (≈ 0.353 µM); MIC Staphylococcus aureus-SMITH (GC 4543) (Staphylococcus sp.; strain GC 4543): 0.5 µg/mL (≈ 0.353 µM); MIC Staphylococcus aureus (GC 4544) (Staphylococcus sp.; strain GC 4544): 0.5 µg/mL (≈ 0.353 µM); MIC Staphylococcus aureus (GC 4545) (Staphylococcus sp.; strain GC 4545): 0.5 µg/mL (≈ 0.353 µM); MIC Staphylococcus haemolyticus (GC 4546) (Staphylococcus sp.; strain GC 4546): 2 µg/mL (≈ 1.41 µM); MIC Coagulase Negative Staphylococcus (GC 4547) (Staphylococcus sp.; strain GC 4547): 4 µg/mL (≈ 2.82 µM); MIC Coagulase Negative Staphylococcus (GC 4548) (Staphylococcus sp.; strain GC 4548): 2 µg/mL (≈ 1.41 µM); MIC Coagulase Negative Staphylococcus (GC 4549) (Staphylococcus sp.; strain GC 4549): 1 µg/mL (≈ 0.705 µM); MIC Coagulase Negative Staphylococcus (GC 4551) (Staphylococcus sp.; strain GC 4551): 4 µg/mL (≈ 2.82 µM); MIC Coagulase Negative Staphylococcus (GC 6257) (Staphylococcus sp.; strain GC 6257): 2 µg/mL (≈ 1.41 µM); MIC Enterococcus avium (GC 4558) (Enterococcus sp.): 0.5 µg/mL (≈ 0.353 µM); MIC Enterococcus faecalis (ATCC 29212) (Enterococcus sp.): 0.5 µg/mL (≈ 0.353 µM); MIC Enterococcus faecalis (GC 2242) (Enterococcus sp.): 0.5 µg/mL (≈ 0.353 µM); MIC Enterococcus faecalis (GC 2691) (Enterococcus sp.): 0.5 µg/mL (≈ 0.353 µM); MIC Enterococcus faecalis (GC 3059) (Enterococcus sp.): 0.5 µg/mL (≈ 0.353 µM); MIC Enterococcus faecalis (GC 4552) (Enterococcus sp.): 0.5 µg/mL (≈ 0.353 µM); MIC Enterococcus faecalis (GC 4553) (Enterococcus sp.): 0.5 µg/mL (≈ 0.353 µM); MIC Enterococcus faecalis (GC 4554) (Enterococcus sp.): 0.5 µg/mL (≈ 0.353 µM); MIC Enterococcus faecalis (GC 6189) (Enterococcus sp.): 0.5 µg/mL (≈ 0.353 µM); MIC Enterococcus faecium (GC 2243) (Enterococcus sp.): 0.5 µg/mL (≈ 0.353 µM); MIC Enterococcus faecium (GC 4556) (Enterococcus sp.): 0.5 µg/mL (≈ 0.353 µM); MIC Enterococcus faecium (GC 4557) (Enterococcus sp.): 0.5 µg/mL (≈ 0.353 µM); MIC Enterococcus faecalis (ATCC 29212) (Enterococcus sp.; inoculum 5×10^5 CFU/mL, strain ATCC 29212): 0.5 µg/mL (≈ 0.353 µM); MIC Enterococcus faecalis (GC 2242) (Enterococcus sp.; inoculum 5×10^5 CFU/mL, strain GC 2242): 0.5 µg/mL (≈ 0.353 µM); MIC Enterococcus faecium (GC 2243) (Enterococcus sp.; inoculum 5×10^5 CFU/mL, strain GC 2243): 0.5 µg/mL (≈ 0.353 µM); MIC Enterococcus faecalis (GC 2691) (Enterococcus sp.; inoculum 5×10^5 CFU/mL, strain GC 2691): 0.5 µg/mL (≈ 0.353 µM); MIC Enterococcus faecalis (GC 3059) (Enterococcus sp.; inoculum 5×10^5 CFU/mL, strain GC 3059): 0.5 µg/mL (≈ 0.353 µM); MIC Enterococcus faecalis (GC 4552) (Enterococcus sp.; inoculum 5×10^5 CFU/mL, strain GC 4552): 0.5 µg/mL (≈ 0.353 µM); MIC Enterococcus faecalis (GC 4553) (Enterococcus sp.; inoculum 5×10^5 CFU/mL, strain GC 4553): 0.5 µg/mL (≈ 0.353 µM); MIC Enterococcus faecalis (GC 4554) (Enterococcus sp.; inoculum 5×10^5 CFU/mL, strain GC 4554): 0.5 µg/mL (≈ 0.353 µM); MIC Enterococcus faecium (GC 4556) (Enterococcus sp.; inoculum 5×10^5 CFU/mL, strain GC 4556): 0.5 µg/mL (≈ 0.353 µM); MIC Enterococcus faecium (GC 4557) (Enterococcus sp.; inoculum 5×10^5 CFU/mL, strain GC 4557): 0.5 µg/mL (≈ 0.353 µM); MIC Enterococcus avium (GC 4558) (Enterococcus sp.; inoculum 5×10^5 CFU/mL, strain GC 4558): 0.5 µg/mL (≈ 0.353 µM); MIC Enterococcus faecalis (GC 6189) (Enterococcus sp.; inoculum 5×10^5 CFU/mL, strain GC 6189): 0.5 µg/mL (≈ 0.353 µM); MIC Streptococcus agalactiae (GC 4564) (Streptococcus sp.): 0.5 µg/mL (≈ 0.353 µM); MIC Streptococcus pneumoniae (ATCC 6301) (Streptococcus sp.): 0.12 µg/mL (≈ 0.0846 µM); MIC Streptococcus pneumoniae (GC 1894) (Streptococcus sp.): 0.12 µg/mL (≈ 0.0846 µM); MIC Streptococcus pneumoniae (GC 4565) (Streptococcus sp.): 0.12 µg/mL (≈ 0.0846 µM); MIC Streptococcus pyogenes (GC 4563) (Streptococcus sp.): 0.12 µg/mL (≈ 0.0846 µM); MIC Streptococcus pneumoniae (ATCC 6301) (Streptococcus sp.; inoculum 5×10^5 CFU/mL, strain ATCC 6301): 0.12 µg/mL (≈ 0.0846 µM); MIC Streptococcus pneumoniae (GC 1894) (Streptococcus sp.; inoculum 5×10^5 CFU/mL, strain GC 1894): 0.12 µg/mL (≈ 0.0846 µM); MIC Streptococcus pyogenes (GC 4563) (Streptococcus sp.; inoculum 5×10^5 CFU/mL, strain GC 4563): 0.12 µg/mL (≈ 0.0846 µM); MIC Streptococcus agalactiae (GC 4564) (Streptococcus sp.; inoculum 5×10^5 CFU/mL, strain GC 4564): 0.5 µg/mL (≈ 0.353 µM); MIC Streptococcus pneumoniae (GC 4565) (Streptococcus sp.; inoculum 5×10^5 CFU/mL, strain GC 4565): 0.12 µg/mL (≈ 0.0846 µM)
